Data on 24 molecules can be found in ChEMBL document CHEMBL5137055, “Near-Infrared Fluorescent Probes as Imaging and Theranostic Modalities for Amyloid-Beta and Tau Aggregates in Alzheimer's Disease” (J Med Chem, 2022).

Series [1] addresses T1, Amyloid-beta precursor protein (Homo sapiens, UniProt P05067). Description: Displacement of [125I]IMPY from amyloid beta (1 to 42) (unknown origin) measured by competitive radioligand binding assay.
Series [2] concerns the target T1, Amyloid-beta precursor protein. Briefly: Displacement of [125I]IMPY from amyloid beta (1 to 40) (unknown origin) measured by competitive radioligand binding assay. (In general: Loss of bound radioactivity is the signal in a displacement assay; it reports binding, not function.)
The nature of series [3]: Drug uptake in brain of Tg mouse at 2 mins post injection. Conditions: read-out: Drug uptake. Type of series: ADME, tissue-based.
Series [4] can be described thus: Binding affinity to amyloid beta (unknown origin) aggregates. Set-up: species or system Homo sapiens.
The nature of series [5]: Lipophilicity, logP of compound. Type of series: physicochemical. Conditions: octanol/water.
Series [6] is described as follows: Inhibition of amyloid beta (unknown origin) self-induced aggregation. More on the design: species or system Homo sapiens.
The species entered for series [7] is Homo sapiens. Description: Inhibition of amyloid beta (unknown origin) measured by ThT-based fluorimetric assay. The conditions noted are these: concentration not given here.
For series [8], the target named is T1, Amyloid-beta precursor protein. Description: Binding affinity to human amyloid beta (1 to 42) monomer measured by fluorescence assay.
Series [9] has the same target. Description: Binding affinity to human amyloid beta (1 to 42) oligomer measured by fluorescence assay.
Series [10] has the same target. Briefly: Binding affinity to human amyloid beta (1 to 42) aggregates measured by fluorescence assay.
The target is the same in series [11]. Description: Binding affinity to human amyloid beta (1 to 40) monomer measured by fluorescence assay.
The target is the same in series [12]. Description: Binding affinity to human amyloid beta (1 to 40) aggregates measured by fluorescence assay.
Series [13] can be described thus: Binding affinity to amyloid beta (unknown origin) monomer. More on the design: species or system Homo sapiens.
A short description of series [14]: Binding affinity to amyloid beta (unknown origin) oligomer. More on the design: species or system Homo sapiens.
In series [15] the target is T1, Amyloid-beta precursor protein. Description: Binding affinity to amyloid beta (1 to 40) (unknown origin) fibrils.
Series [16] has the same target. Description: Binding affinity to amyloid beta (1 to 42) (unknown origin) fibrils.
For series [17] the target is unchanged. Briefly: Binding affinity to amyloid beta (1 to 40) (unknown origin) monomer.
Series [18] shares this target. Briefly: Binding affinity to amyloid beta (1 to 42) (unknown origin) monomer.
Series [19] shares this target. Description: Binding affinity to amyloid beta (1 to 40) (unknown origin) oligomer.
For series [20] the target is unchanged. Briefly: Binding affinity to amyloid beta (1 to 42) (unknown origin) oligomer.
Series [21] can be described thus: Binding affinity to tau protein (unknown origin). More on the design: species or system Homo sapiens.
A short description of series [22]: Binding affinity to amyloid beta (unknown origin). Set-up: species or system Homo sapiens.
The nature of series [23]: Drug uptake in brain of Tg mouse. Type of series: ADME, tissue-based. Conditions: for tissue uptake: Tg, brain, read-out: Drug uptake.
A short description of series [24]: Binding affinity to soluble amyloid beta (unknown origin). More on the design: species or system Homo sapiens.
The nature of series [25]: Binding affinity to insoluble amyloid beta (unknown origin). More on the design: species or system Homo sapiens.
Series [26] can be described thus: Binding affinity to mouse brain amyloid beta plaques.
The target of series [27] is T1, Amyloid-beta precursor protein. Briefly: Binding affinity to human amyloid beta (1 to 42) monomer measured by fluorescence polarization assay. (In general: Fluorescence polarisation rises when a labelled molecule tumbles more slowly, as on binding a larger partner.)
Series [28] has the same target. Briefly: Binding affinity to human amyloid beta (1 to 42) oligomer measured by fluorescence polarization assay.
Series [29] has the same target. Briefly: Binding affinity to human amyloid beta (1 to 42) aggregates measured by fluorescence polarization assay.
The target of series [30] is Albumin (Bos taurus, UniProt P02769). Description: Binding affinity to bovine serum albumin.
In series [31] the target is T1, Amyloid-beta precursor protein. Description: Binding affinity to amyloid beta (1 to 40) (unknown origin) aggregates.
For series [32], the species on record is Homo sapiens. Briefly: Inhibition of amyloid beta (unknown origin) assessed as decrease in amyloid beta monomers.

T1 sequence (P05067 whole entry): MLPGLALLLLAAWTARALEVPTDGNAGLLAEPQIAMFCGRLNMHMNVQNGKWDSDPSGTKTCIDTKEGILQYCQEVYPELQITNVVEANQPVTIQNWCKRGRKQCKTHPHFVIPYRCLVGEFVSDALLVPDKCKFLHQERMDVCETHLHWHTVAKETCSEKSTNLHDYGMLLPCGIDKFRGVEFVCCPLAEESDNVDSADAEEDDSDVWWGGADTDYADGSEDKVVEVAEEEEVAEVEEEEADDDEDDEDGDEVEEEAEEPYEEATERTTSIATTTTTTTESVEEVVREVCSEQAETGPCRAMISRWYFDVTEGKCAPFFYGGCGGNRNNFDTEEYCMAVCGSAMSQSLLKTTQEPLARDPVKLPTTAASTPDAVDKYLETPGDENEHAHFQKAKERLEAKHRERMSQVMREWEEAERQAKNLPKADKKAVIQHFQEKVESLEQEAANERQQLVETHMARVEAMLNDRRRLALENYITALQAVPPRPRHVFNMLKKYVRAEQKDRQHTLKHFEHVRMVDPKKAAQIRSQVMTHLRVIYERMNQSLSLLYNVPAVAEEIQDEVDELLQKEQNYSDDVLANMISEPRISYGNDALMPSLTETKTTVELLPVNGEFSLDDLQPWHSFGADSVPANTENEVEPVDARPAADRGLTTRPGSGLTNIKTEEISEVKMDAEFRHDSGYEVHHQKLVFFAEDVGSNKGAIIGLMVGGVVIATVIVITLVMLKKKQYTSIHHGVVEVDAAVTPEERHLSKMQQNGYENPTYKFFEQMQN
Albumin, sequence (P02769 whole entry): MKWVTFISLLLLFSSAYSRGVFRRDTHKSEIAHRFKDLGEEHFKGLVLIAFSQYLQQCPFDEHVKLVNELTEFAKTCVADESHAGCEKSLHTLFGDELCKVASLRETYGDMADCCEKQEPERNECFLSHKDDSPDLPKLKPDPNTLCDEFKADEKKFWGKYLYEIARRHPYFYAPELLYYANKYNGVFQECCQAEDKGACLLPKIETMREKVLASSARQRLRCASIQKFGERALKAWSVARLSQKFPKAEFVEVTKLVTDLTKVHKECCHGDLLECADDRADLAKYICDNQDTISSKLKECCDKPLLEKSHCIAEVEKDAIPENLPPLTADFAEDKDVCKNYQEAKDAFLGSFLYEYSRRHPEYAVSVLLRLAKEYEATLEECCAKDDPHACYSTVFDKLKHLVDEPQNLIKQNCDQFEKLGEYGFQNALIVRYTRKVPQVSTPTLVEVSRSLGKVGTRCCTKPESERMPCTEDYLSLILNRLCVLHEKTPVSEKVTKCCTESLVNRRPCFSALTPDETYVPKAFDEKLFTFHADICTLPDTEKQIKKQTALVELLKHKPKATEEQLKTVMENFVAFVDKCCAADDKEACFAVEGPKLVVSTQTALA

In series [1], `CN1C(=O)C(=C/C=C/C=C/c2ccc(N(C)C)cc2)C(=O)N(C)C1=O` displayed a Ki of 13.7 nM. Besides, in [2], the Kd was found to be 23.9 nM. Also, the tissue uptake at 2 min in series [3] was 0.83 %ID/g.

In turn, `CCOC(=O)CN1C(=O)/C(=C/c2ccc3c(c2)Sc2ccccc2N3C)SC1=S` displayed a Kd in [4] of 7.5 nM. In series [5], this molecule registered a logP of 3.68. Further, 670 nM corresponded to half-maximal inhibition in series [6] (IC50).

The molecule `Cc1ccc2nc(/C=C/c3ccc(N)cc3)ccc2c1` came in with an inhibition in [7] of 73%.

With `CCN(CC)c1ccc(/C=C/C2=CC(/C=C/c3ccc(N(CC)CC)nc3)=[O+][B-](F)(F)O2)cn1`, the Kd in series [8] worked out at 24 nM; in series [9], 16 nM; in series [10], 27 nM.

Take `Cc1c(/C=C/C2=CC(/C=C/c3cnn(-c4ccccc4)c3C)=[O+][B-](F)(F)O2)cnn1-c1ccccc1`: the Kd in series [9] worked out at 68.8 nM; in series [11], 85.7 nM; in series [12] it was 52.4 nM.

Take `CC1=CC(C)=[N+]2C1=C(CCCN1CCNc3ccccc31)c1c(C)cc(/C=C/c3ccc(N(C)C)s3)n1[B-]2(F)F`: the dissociation constant Kd was 18 nM in series [4], 6 nM in [13] and 27 nM in series [14].

Regarding `CCCCN(CCCC)c1ccc2cc(/C=C/c3cc[n+](C)c4ccccc34)ccc2c1`, the Kd amounted to 39.3 µM in series [15]; 246 µM in [16]; 71.1 µM in series [17]; 281 µM in [18]; 20.1 µM in series [19]; 128 µM in series [20].

For the molecule `CN(C)c1ccc2nc(/C=C/C=C/C=C(C#N)C#N)cnc2c1`, the results for the Kd in series [21] and in [22] were 43.1 nM and 33.2 nM, respectively. Besides, in series [23] (in vivo), the Drug uptake was 7.76%.

As for `CN(C)c1ccc(/C=C/C2=CC(/C=C/c3ccc(N(C)C)cc3)=[O+][B-]3(OC(=O)C(=O)O3)O2)cc1`, the dissociation constant Kd turned out to be 3.2 nM in [8], 3.8 nM in series [9] and 38.1 nM in series [12].

In the case of `COCCOCCn1c2ccc(F)cc2c2cc(/C=C/c3cc[n+](CCO)c4ccccc34)ccc21`, the Kd in series [15] worked out at 1.9 µM; in series [17], 3.22 µM; in [19], 0.66 µM.

Consider `CCN(CC)c1ccc(/C=C/C2=[O+][B-](F)(F)OC(/C=C/c3ccc(N(CC)CC)nc3)=C2CCCOc2c(C)cccc2C)cn1`, for which the Kd came out at 7.5 nM in [24] and 506 nM in series [25].

As for `CN(C)c1ccc2cc(/C=C/C=C/C=C(C#N)C#N)ccc2c1`, in series [4], the affinity, expressed as Kd, was 1.9 nM and affinity was put at a Ki of 32.7 nM. Moreover, the logP in series [5] worked out at 4.48. Besides, the tissue uptake in series [23] stood at 3.4 %ID/g.

For the molecule `CN(CCO)c1ccc2cc(/C=C/C=C/C=C(C#N)C#N)ccc2c1`, the Kd in series [1] is 14.5 nM.

`CN(C)c1ccc(/C=C/C2=[O+][B-](F)(F)OC(/C=C/c3ccc(OCCOCCF)cc3)=C2)cc1` had a Kd in [26] of 19.7 nM.

Take `COC(=O)C(=C/C=C/C=C/c1ccc(N(C)C)cc1)C(=O)OC`: the Ki stood at 645 nM in [22] and 652 nM in series [1].

With `COc1cc(/C=C/C(=O)/C(Cc2cn(CCCCCCNC(=O)CCNC(=O)CCNC(=O)CO[C@H]3CC[C@@]4(C)C(=CC[C@H]5[C@@H]6CC[C@H]([C@@H](C)CCCC(C)C)[C@@]6(C)CC[C@@H]54)C3)nn2)=C(O)/C=C/c2ccc(O)c(OC)c2)ccc1O`, the Kd in series [27] is 2030 nM; in [28], 2170 nM; in series [29] it was 830 nM; in series [30], 71 µM.

Turning to `CCCCN(CCCC)c1ccc2cc(/C=C/c3c[n+](C)cc4ccccc34)ccc2c1`, the Kd in [15] was found to be 1110 µM; in series [16], 97.9 µM; in series [17], 81 µM; in series [18], 25.3 µM; in series [19], 36.4 µM; in [20] it was 20.8 µM.

The molecule `CCOC(=O)CN1C(=O)S/C(=C\C=C\c2ccc3c(c2)Sc2ccccc2N3C)C1=O` gave a Kd in series [4] of 10.3 nM. In series [5], this molecule gave a logP of 3.6. Also, the IC50 in series [6] amounted to 1800 nM.

On to `CCCC[N+]1=C(/C=C/c2ccc(N(CC)CC)cc2)C(C)(C)c2ccccc21`, for which, in series [15], the Kd stood at 0.93 µM. Further, the IC50 in [21] turned out to be 1.41 nM. Moreover, the inhibition constant (Ki) in [31] was 1.37 nM.

Consider `CCCCN(CCCC)c1ccc2cc(/C=C/c3cc[n+](CCO)c4ccccc34)ccc2c1`, for which the Kd worked out at 33.3 µM in series [15]; 848 µM in series [16]; 246 µM in series [17]; 1090 µM in series [18]; 41.7 µM in series [19]; 490 µM in [20].

In [4], `CN(C)c1ccc2cc(/C=C/C=C(C#N)C#N)ccc2c1` yielded a Kd of 8.8 nM and a Ki of 96.7 nM. In addition, in series [5], the lipophilicity (logP) worked out at 4.1. For the same molecule, the tissue uptake in series [23] is 1.9 %ID/g.

On to `COC(=O)/C(C#N)=C/C=C/C=C/c1ccc(N(C)C)cc1`, for which the affinity in series [1], expressed as Kd, was 106 nM.

With `O=C1NC(=S)NC(=O)C1=C/C=C/C=C/C1C(=O)NC(=S)NC1O` (stereo not given), in [3], the tissue uptake at 2 min was determined as 0.04 %ID/g.

As for `Nc1c(/N=N/c2ccc(-c3ccc(/N=N/c4cc(S(=O)(=O)O)c5ccccc5c4N)cc3)cc2)cc(S(=O)(=O)O)c2ccccc12`, the ID50 in series [32] came out at 3.4 µM.

One may read the Ki as a dissociation constant, usually derived from enzyme kinetics or from competition with a known ligand. A lower Ki goes with a stronger hold on the target. By Kd is commonly meant the free concentration of one partner at which half of the binding sites on the other are occupied at equilibrium, for simple one-to-one binding. As a reminder, the logP is a log measure of how a compound divides between an organic and an aqueous phase. High values mean a more lipophilic compound, low ones a more hydrophilic compound. As a reminder, the IC50 is the concentration needed to halve the response being measured. Higher therefore signals a need for much substance. Usually inhibition stands for the share of the control response that was lost under treatment.
